These results are taken from EP0357416A2, “Use of serotonin antagonists in the treatment of drug addiction” (GLAXO GROUP LIMITED, priority 1988, dated 1990).

The subject of one assay is Alcohol-preferring rats. The assay can be described thus: Alcohol consumption test in rats (computerised drinkometer). The assay is classed as in vivo, Male Wistar rats. Particulars: 6% v/v ethanol, 0.1µg/kg i.p. once daily for 7 days, 1h prior to the 12h dark cycle. Here is the method:
Male Wistar rats, initially weighing 200g, were housed individually in suspended stainless steel cages. The animal colony room was controlled for temperature (22-24°C) and humidity (55%) and was maintained on a 12-hour dark-light cycle which began at 1900 hours. Rats were allowed free access to food, water and ethanol solutions. Water and ethanol solutions were presented in two custom-designed drinkometer tubes mounted on the front of each rat cage. To avoid bias generated by a position preference, the tube positions were randomly reversed on each ethanol presentation. Water and ethanol consumption were continuously monitored daily during the drinking cycle (1900 to 0700h). Minute-to-minute ethanol and water volume consumptions were recorded using a computerised drinkometer system. This system consists of pressure transducers embedded in the base of the drinking tube and accurately detects significant volume changes as small as 0.1ml. Ethanol drinking solutions were prepared by diluting 95% ethyl alcohol with distilled water to form 6% v/v concentrations. From the minute-to-minute volume recordings, the following variables were calculated : total ethanol volume; total ethanol preference; weight-adjusted ethanol volume and total minutes of ethanol drinking activity. […]

A further assay deals with Rats. The assay can be described thus: Rat social interaction test (withdrawal from chronic treatment with a drug or substance of abuse). Particulars: rats withdrawn after diazepam 10mg/kg i.p. b.d. for 14 days; test compound 1µg/kg i.p. once daily immediately after withdrawal. The assay is classed as in vivo. Here is the method:
The method was based on that described by S. E. File, J. Neurosci. Methods, 1980, 2, 219-238. Rats were treated chronically with diazepam (10mg/kg i.p. b.d.) for 14 days and then withdrawn.

For the compound `Cc1[nH]cnc1CN1CCc2c(c3ccccc3n2C)C1=O.Cl` [test compound, 2,3,4,5-tetrahydro-5-methyl-2-[(5-methyl-1H-imidazol-4-yl)methyl]-1H-pyrido[4,3-b]indol-1-one hydrochloride], in the assay on Alcohol-preferring rats, the ethanol drinking time result is on record as “reduced” and the ethanol intake result is listed as “reduced”. Also, the “withdrawal response (reduced social interaction)” value in the assay on Rats is “the withdrawal response was not observed”.
